Reference: US12167998B2, “Spiro-lactam NMDA receptor modulators and uses thereof” (Tenacia Biotechnology (Hong Kong) Co., Limited, priority 2013, dated 2024)
Like-named read-outs stand apart in the source and are kept apart here. Blank lines part the entries; values can stand above or below the compound they belong to.

How the values were obtained:
[1] = system: hippocampal slices, Schaffer collateral-CA1; assay: Long term potentiation in hippocampal slices; assay type: cell-based, rat; conditions: for LTP: LTP Augmentation (%): Table 4
Description: Assays were conducted as described in Zhang et al. (Zhang, X. L., Sullivan, J. A., Moskal, J. R., Stanton, P. K., 2008. A NMDA receptor glycine site partial agonist, GLYX-13, simultaneously enhances LTP and reduces LTD at Schaffer collateral-CA1 synapses in hippocampus. Neuropharmacology. 55, 1238-50) Sprague-Dawley rats (12-18 days old; Taconic Farms) were deeply anesthetized with isoflurane and decapitated. Rat brains were removed rapidly, submerged in ice-cold artificial cerebrospinal fluid (ACSF, 2-4° C.), which contained (in mM): 124 NaCl, 4 KCl, 2 MgSO4, 2 CaCl2, 1.25 NaH2PO4, 26 NaHCO3, 10 glucose; at pH 7.4, gassed continuously with 95% O2/5% CO2). The rat brains were hemisected, the frontal lobes cut off, and individual hemispheres glued using cyanoacrylate adhesive onto a stage immersed in ice-cold ACSF gassed continuously with 95% O2/5% CO2 during slicing. Coronal slices (400 μm thick) were cut using a Vibratome (Leica VT1200S), and transferred to an interface holding chamber for incubation at room temperature for a minimum of one hour before transferring to a Haas-style interface recording chamber continuously perfused at 3 ml/min with oxygenated ACSF at 32±0.5° C. Low resistance recording electrodes were made from thin-walled borosilicate glass (1-2 MΩ after filling with ACSF) and inserted into the apical dendritic region of the Schaffer collateral termination field in stratum radiatum of field CA1 region to record field excitatory postsynaptic potentials (fEPSPs). A bipolar stainless steel stimulating electrode (FHC Co.) was placed on Schaffer collateral-commissural fibers in CA3 stratum radiatum, and constant current stimulus intensity adjusted to evoke approximately half-maximal fEPSPs once each 30 s ([…]; 100 μs duration). fEPSP slope was measured before and after induction of LTP by linear interpolation from 20 to 80% of maximum negative deflection, and slopes confirmed to be stable to within ±10% for at least 15 min before commencing an experiment. […] LTP was induced by stimulation of Schaffer collateral axons with four high frequency theta burst stimulus trains of 10×100 Hz/5 pulse bursts each, applied at an inter-burst interval of 200 ms. Each train was 2 seconds in duration, and trains were applied 15 seconds apart. The signals were recorded using a Multiclamp 700B amplifier and digitized with a Digidata 1322 (Axon Instruments, USA). Data were analyzed using pClamp software (version 9, Axon Instruments) on an IBM-compatible personal computer.

[2] = target: NMDA receptor glycine site, rat cortical membranes (Rattus norvegicus (Rat), UniProt P35439); assay: [3H] MK-801 binding assay (potentiation of [3H]MK-801 binding)
Description: Assays were conducted as described in Moskal et al. (Moskal, J. R., Kuo, A. G., Weiss, C., Wood, P. L., O'Connor Hanson, A., Kelso, S., Harris, R. B., Disterhoft, J. F., 2005. GLYX-13: a monoclonal antibody-derived peptide that acts as an N-methyl-D-aspartate receptor modulator. Neuropharmacology. 49, 1077-87) The potentiation of [^3H]MK-801 binding (5 nM; 22.5 Ci/mmol) to well washed rat cortical membranes (200 μg) was measured under non-equilibrium conditions (15 min @ 25° C.) in the presence of increasing concentrations of test compounds and […]. Zero levels were determined in the absence of any glycine ligand and in the presence of 30 μM 5.7 DCKA. Maximal stimulation was measured in the presence of 1 mM glycine, and 500 μM glutamate was present in all samples. The facilitation of [^3H]MK-801 binding by tests compounds was calculated by using a 3 parameter log agonist vs. response equation (Graph pad Prism, USA) and potency (EC50, expressed in pM) and maximal activity (% maximal stimulation) were calculated for the test compound.

[3] = Porsolt test, floating time inhibition; assay type: in vivo; conditions: 1 hour post dose
[4] = Table 4, rat cortex, read-out: MK-801 Glycine Site Binding Assay: Rat Cortex EC50
[5] = Table 3, read-out: [3H] MK-801 binding assay: EC50

Emax ([2]; maximal stimulation measured with 1 mM glycine): 38%
pEC50 ([2]; rat cortical membranes, 50 μM glutamate): 7.4
EC50 ([2]; rat cortical membranes, 50 μM glutamate, read-out: pEC50 (converted)): 39.8 nM
Compound: C[C@@H](O)[C@@H](C(N)=O)N1CC2(CCCN2)C1=O (stereo partly drawn) [Compound X, (2S,3R)-3-hydroxy-2-(1-oxo-2,5-diazaspiro[3,4]octan-2-yl)butanamide]
long-term potentiation after high frequency stimulation of Schaffer collateral-evoked NMDA e.p.s.c.s in CA1 pyramidal neurons ([1]; tested at 1 μM, FIG. 2): increased long-term potentiation

EC50 [2, 4]: 18.9 nM
Compound: CC1CCC2(CN([C@H](C(N)=O)[C@@H](C)O)C2=O)N1C(=O)OC(C)(C)C (stereo partly drawn) [Compound 2S-FNL-33, tert-butyl 2-((2S,3R)-1-amino-3-hydroxy-1-oxobutan-2-yl)-6-methyl-1-oxo-2,5-diazaspiro[3.4] octane-5-carboxylate]
LTP: LTP Augmentation (%) ([1]; LTP concentration 1 uM): 140%

EC50 [2, 4]: 0.0613 nM
Compound: C[C@@H](O)[C@@H](C(=O)NCc1ncno1)N1CC2(CCCN2C(=O)OC(C)(C)C)C1=O (stereo partly drawn) [Compound 2S-FNL-14, tert-butyl 2-((2S,3R)-1-(((1,2,4-oxadiazol-5-yl)methyl)amino)-3-hydroxy-1-oxobutan-2-yl)-1-oxo-2,5-diazaspiro[3.4] octane-5-carboxylate]
LTP: LTP Augmentation (%) ([1]; LTP concentration 1 uM): 120%

EC50 [2, 5]: 54.3 nM
Compound: C[C@@H](O)[C@@H](C(N)=O)N1CC2(CCCN2)C1=O (stereo partly drawn) [Compound 2S-FNL-3, (2S,3R)-3-hydroxy-2-(1-oxo-2,5-diazaspiro[3.4]octan-2-yl) butanamide]
Unified Activity Data: LTP Augmentation (Percent) ([1]; LTP concentration 1 uM): 130%
Unified Activity Data: Porsolt Floating Time Inhibition (Percent) ([3]; 3 mg/kg IV): 80%

EC50 [2, 4]: 0.00119 nM
Compound: C[C@@H](O)[C@@H](C(=O)NCc1ccccc1)N1CC2(CCCN2C(=O)OC(C)(C)C)C1=O (stereo partly drawn) [Compound 2S-FNL-10, tert-butyl 2-((2S,3R)-1-(benzylamino)-3-hydroxy-1-oxobutan-2-yl)-1-oxo-2,5-diazaspiro[3.4] octane-5-carboxylate]
LTP: LTP Augmentation (%) ([1]; LTP concentration 1 uM): 90%

EC50 [2, 4]: 20 nM
Compound: C[C@@H](O)[C@@H](C(N)=O)N1CC2(CCCN2C(=O)OC(C)(C)C)C1=O (stereo partly drawn) [Compound 2S-FNL-2, tert-butyl 2-((2S,3R)-1-amino-3-hydroxy-1-oxobutan-2-yl)-1-oxo-2,5-diazaspiro[3,4] octane-5-carboxylate]

Further lines, the compound ahead of its results:

Compound: CC1CCC2(N1)C(=O)N([C@H](C(=O)N1CCCC1)[C@@H](C)O)C2C (stereo partly drawn) [Compound 2S-FNL-38, 2-((2S,3R)-3-hydroxy-1-oxo-1-(pyrrolidin-1-yl)butan-2-yl)-3,6-dimethyl-2,5-diazaspiro[3.4]octan-1-one]
EC50 [2, 4]: 3.31 nM

Compound: CC(N)C(C(N)=O)N1CC2(CCCN2)C1=O (stereo not drawn) [Compound 2S-FNL-7, 3-amino-2-(1-oxo-2,5-diazaspiro[3.4]octan-2-yl)butanamide]
EC50 [2, 5]: 11 nM

Compound: CC1CCC2(CN([C@H](C(N)=O)[C@@H](C)O)C2=O)N1 (stereo partly drawn) [Compound 2S-FNL-34, (2S,3R)-3-hydroxy-2-(6-methyl-1-oxo-2,5-diazaspiro[3.4]octan-2-yl) butanamide]
Unified Activity Data: LTP Augmentation (Percent) ([1]; LTP concentration 0.1 uM): 100%
Unified Activity Data: Porsolt Floating Time Inhibition (Percent) ([3]; 1 mg/kg PO): 73%

Compound: CC(=O)O[C@H](C)[C@@H](C(=O)N1CCCC1)N1CC2(CCCN2)C1=O (stereo partly drawn) [Compound 2S-FNL-27, (2R,3S)-4-oxo-3-(1-oxo-2,5-diazaspiro[3.4]octan-2-yl)-4-(pyrrolidin-1-yl) butan-2-yl acetate]
EC50 [2, 5]: 0.00349 nM

Compound: NC(=O)[C@H](CO)N1CC2(CCCN2)C1=O (stereo partly drawn) [Compound 2S-FNL-21, (2S)-3-hydroxy-2-(1-oxo-2,5-diazaspiro[3.4]octan-2-yl)propanamide]
Unified Activity Data: LTP Augmentation (Percent) ([1]; LTP concentration 0.1 uM): 80%
